Results from patent US20110039779A1, “IGF-1R BINDING PROTEINS AND ANTAGONISTS” (priority 2007, published 2011).
“And” between values parts separate entries of the source, which are not always exact repeats. Equal entries are not always repeated. Where two headings read alike, the source gives them in different places.

Columns and labels:
SW480 cells = assay type: cell-based
Procedure: For cell growth/density studies, a mitochondrial activity assay was used, as exemplified by the following. Cells (SW480, MCF-7S8) were propagated in complete medium (DME: F12, 10% FCS (SW 480) or 5% FCS (MCF-7S8, P/S)), trypsinized, and seeded in 96 well plates as 10,000 cells/well in medium with 0.5% FCS. All wells in the periphery were omitted and only filled with medium. […] All treatments are made in triplicates. […] Treatment was continued for 48 hours (SW480 cells) or 72 hours (MCF-7S8 cells) before quantification of the cell density. Media was exchanged each day. Media and peptides were diluted in DMSO. When measuring cell density, the volume of each well was adjusted to […] Pre-diluted WST-1 (1 ml+1.5 ml DME:F12) was added as 25 μL to each well including background samples. Three wells with media only served as background controls. The cells were incubated for 90 min protected against light in an incubator.

purified HIGF-1R = biological target: T1, purified HIGF-1R (Homo sapiens, UniProt P08069); test: IGF-1R activation kinase assay; assay type: biochemical; details: FIG. 2
T1 construct: HIGF-1R was purified from a cell culture of BHK cells stably transfected with IGF-1R cDNA; made in house; host or cells: BHK cells stably transfected with IGF-1R cDNA
T1 sequence (P08069 31-736 limits assumed): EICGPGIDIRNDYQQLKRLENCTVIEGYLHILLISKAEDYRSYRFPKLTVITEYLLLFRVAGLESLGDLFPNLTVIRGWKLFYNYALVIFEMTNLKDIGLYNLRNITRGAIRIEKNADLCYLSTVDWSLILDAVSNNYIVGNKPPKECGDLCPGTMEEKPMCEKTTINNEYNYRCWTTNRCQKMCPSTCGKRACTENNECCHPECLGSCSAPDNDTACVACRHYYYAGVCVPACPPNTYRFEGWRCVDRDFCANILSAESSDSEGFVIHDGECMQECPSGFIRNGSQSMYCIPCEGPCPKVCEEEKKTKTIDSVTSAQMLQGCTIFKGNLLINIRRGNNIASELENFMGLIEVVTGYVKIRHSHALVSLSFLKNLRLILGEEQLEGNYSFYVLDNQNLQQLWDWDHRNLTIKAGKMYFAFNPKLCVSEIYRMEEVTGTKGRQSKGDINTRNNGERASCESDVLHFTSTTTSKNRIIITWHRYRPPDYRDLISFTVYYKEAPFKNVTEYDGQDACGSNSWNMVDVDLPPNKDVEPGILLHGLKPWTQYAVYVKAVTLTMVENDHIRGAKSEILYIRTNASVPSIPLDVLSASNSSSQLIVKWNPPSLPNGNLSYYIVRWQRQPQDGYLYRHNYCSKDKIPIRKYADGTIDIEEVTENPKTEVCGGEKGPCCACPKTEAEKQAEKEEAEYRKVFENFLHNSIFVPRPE
T1 sequence (P08069 741-1367 limits assumed): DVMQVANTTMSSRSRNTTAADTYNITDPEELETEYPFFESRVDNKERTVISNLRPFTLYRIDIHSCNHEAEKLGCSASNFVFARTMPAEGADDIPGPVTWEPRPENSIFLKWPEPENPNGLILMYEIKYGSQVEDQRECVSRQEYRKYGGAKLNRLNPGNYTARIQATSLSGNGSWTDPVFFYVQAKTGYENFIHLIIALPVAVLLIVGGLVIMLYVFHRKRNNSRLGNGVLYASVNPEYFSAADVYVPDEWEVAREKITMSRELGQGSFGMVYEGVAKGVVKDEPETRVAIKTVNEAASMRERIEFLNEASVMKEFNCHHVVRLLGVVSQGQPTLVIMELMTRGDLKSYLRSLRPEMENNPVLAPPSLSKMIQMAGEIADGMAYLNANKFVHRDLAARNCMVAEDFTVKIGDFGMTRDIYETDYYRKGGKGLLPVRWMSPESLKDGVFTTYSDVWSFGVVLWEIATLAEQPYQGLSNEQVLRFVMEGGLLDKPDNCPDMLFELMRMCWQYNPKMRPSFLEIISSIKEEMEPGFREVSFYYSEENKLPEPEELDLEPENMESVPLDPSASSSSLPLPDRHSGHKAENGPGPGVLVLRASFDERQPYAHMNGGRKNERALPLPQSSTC
Procedure: For determining IGF-1R activation with test peptides, a kinase assay, generally using the following conditions was employed. A solution of each test peptide in kinase buffer (Hepes 100 mM (pH 8.0), MgCl2 8 mM, MnCl2 6 mM, Triton X100 0.1% v/v, BSA 0.2% w/v, 4 μg/ml IRS-1 peptide (Biotin-[…] in PBS+1 mg/ml)) was prepared. Samples were mixed in a microtiter plate in triplicate. 50 μl 2× kinase buffer was added into each well. […] Volume was adjusted to 88 μL, before addition of purified HIGF-1R (2 μl/well). Plates were shaken and incubated for 50 min. at room temperature (RT). DTT and 10 μl/well ATP were added and the wells incubated for 10 min. before stopping the reaction by adding 10 μl stop-buffer (50 mM EDTA (pH 8.0))/well and shaking. The samples were then transferred to streptavidin coated plates and incubated for 1 hour at RT. The coated plates were aspirated and washed 3 times with TBS-T. […] P-tyr Ab-PO (Phosphotyrosine-RC20:HRPO (1:1000) in TBS-T) was added and each plate was incubated for 30 min at RT. The plates were aspirated and washed 3 times with TBS-T. 100 μl TMB-One-substrate (Kem-En-Tec Diagnostics A/S—Denmark) (preheated to RT) was then added and the plates further incubated for approximately 20 min at RT. This reaction was stopped by adding 10 μl H2SO4 and the plates were read in an ELISA-reader at […] within 5-10 min. thereafter. […]

MCF7 cells = MCF7 cells (Homo sapiens, UniProt P08069); test: antagonism assay in starved MCF7 cells, luminescence viability, 72 hrs; assay type: cell-based; details: Table 9
Chain of MCF7 cells (P08069 31-736): as the sequence (P08069 31-736 limits assumed) above
Procedure: Additional binding and antagonism assays using candidate peptides were performed. […] Cell viability was determined by luminescence assay and IC50 was calculated using standard techniques.

MAPK42 = test: downstream signaling in L6 cells: MAPK42; assay type: cell-based; details: 3 nM IGF-1, read-out: MAPK42, IC50 for down regulation of the stimulation to the basal level
Procedure: (§1) The tyrosine phosphorylation of IRS signaling (the 180 kDa band on a tyrosine phosphor Western blot) as well as activation of effectors MAPK 44 and 42 and PKB were analyzed by using antibodies specific for their active forms using methods substantially similar to those described in Example 14 of the '246 PCT application.
(§2) The effect of select peptides on downstream signaling (MAPK44, MAPK42, PKB/Akt, IRS-1, and IGF-1R) was also measured by studying the signaling in L6 cells predominantly expressing IGF-1R and very limited insulin receptors. […] The antagonistic effect of the peptides can be seen to affect all the downstream signaling from the IGF-1R.

IRS-1 = test: downstream signaling: IRS-1 tyrosine phosphorylation; assay type: cell-based; details: L6 cells; 3 nM IGF-1; read-out: IRS-1, IC50 for down regulation of the stimulation to the basal level
Procedure: as §1, §2

IGF-IR = test: downstream signaling in L6 cells: IGF-IR; assay type: cell-based; details: 3 nM IGF-1, read-out: IGF-IR, IC50 for down regulation of the stimulation to the basal level
Procedure: as §1, §2

MAPK44 = test: downstream signaling in L6 cells: MAPK44; assay type: cell-based; details: 3 nM IGF-1, read-out: MAPK44, IC50 for down regulation of the stimulation to the basal level
Procedure: as §1, §2

[1] = read-out: IC50, inhibition of IGF-1 (10 nM)-induced proliferation of SW480 cells, experiment 13262-015
[2] = read-out: IC50, inhibition of IGF-1 (10 nM)-induced proliferation of SW480 cells, experiment 13262-016
[3] = first value of the cell: concentration needed to blunt the effect of 10 nM IGF-1, cells in words only = effect as reported, 48 hours
[4] = read-out: IC50 in SW480 (M) in presence of IGF-1/alone: in presence of IGF-1, first value of the cell: concentration needed to blunt the effect of 10 nM IGF-1, cells in words only = effect as reported, 48 hours
[5] = read-out: IC50 in SW480 (M) in presence of IGF-1/alone: alone, second value of the cell: concentration needed to inhibit basal level in 0.5% FCS

Ac-SFYSCLESLVQGPAEKSRGQWEGCRX [Peptide F369]
IC50 (SW480 cells; [1]): > 1e-05 M
IC50 (SW480 cells; [2]): > 1e-05 M

ELQGFCELLATVTGVTGLGCLDYQPIE [Peptide F202]
IC50 in SW480 (M) in presence of IGF-1/alone: in presence of IGF-1 (SW480 cells; [3]): No effect
IC50 (SW480 cells; [4]): > 1e-05 M
IC50 in SW480 (M) in presence of IGF-1/alone: alone (SW480 cells; second value of the cell: concentration needed to inhibit basal level in 0.5% FCS): no effect

GIISQSCPESFYDWFAGQVSDPWWCW-Lig [Peptide F116]
IC50 in SW480 (M) in presence of IGF-1/alone: in presence of IGF-1 (SW480 cells; [3]): No effect

SFYSCLESLVAGPAEKSRGQWEGCRK [Peptide F259]
IC50 (SW480 cells; [4]): 2e-06 M
inhibition of IGF-1R kinase activation by IGF-1 (purified HIGF-1R): completely inhibit

Ac-VGRASGPPENFYDWPGRQLSLQSGEQRR [Peptide F287]
IC50 in SW480 (M) in presence of IGF-1/alone: in presence of IGF-1 (SW480 cells; [3]): No effect

FFYRCLSRLLGGOLGSRLGLSCIGD [Peptide F139]
IC50 in SW480 (M) in presence of IGF-1/alone: in presence of IGF-1 (SW480 cells; [3]): Antagonistic

EISFRCQLFVLAGMHPCPVDVGGEGFE [Peptide F170]
IC50 in SW480 (M) in presence of IGF-1/alone: in presence of IGF-1 (SW480 cells; [3]): No effect

RQWDCRGRPCGDAESFYEWFDQQRS [Peptide F264]
IC50 (SW480 cells; [5]): > 1e-05 M
IC50 (SW480 cells; [4]): > 1e-05 M

EFLTRLLERLGLSWERGEAGGPYAQAE [Peptide F175]
IC50 in SW480 (M) in presence of IGF-1/alone: in presence of IGF-1 (SW480 cells; [3]): No effect

Ac-VEGROLFYDLLROLLAMRRNG [Peptide F235]
IC50 in SW480 (M) in presence of IGF-1/alone: in presence of IGF-1 (SW480 cells; [3]): No effect
inhibition of IGF-1R kinase activation by IGF-1 (purified HIGF-1R): completely inhibit

EFGTGYGGDGGGYWSGYEWLAW [Peptide F207]
IC50 in SW480 (M) in presence of IGF-1/alone: in presence of IGF-1 (SW480 cells; [3]): No effect
IC50 (SW480 cells; [4]): 2e-06 M

EERATPRWRGYEWFDAQVERE [Peptide F211]
IC50 in SW480 (M) in presence of IGF-1/alone: in presence of IGF-1 (SW480 cells; [3]): No effect

VEGRGLFYDLLRQLLARRQNG [Peptide F158]
IC50 in SW480 (M) in presence of IGF-1/alone: in presence of IGF-1 (SW480 cells; [3]): No effect

VQDDCRGRPCGDADSFYEWFDQQAS [Peptide F263]
IC50 (SW480 cells; [5]): > 1e-06 M
IC50 (SW480 cells; [4]): > 1e-06 M

GSLDESFYRWFERQLEGGSGGSGLEQERAGTWCENSGRGCLH [Peptide F156]
IC50 in SW480 (M) in presence of IGF-1/alone: in presence of IGF-1 (SW480 cells; [3]): No effect

SFYSCLESLVNGPAEKSRGQWDGCR [Peptide F249]
IC50 (SW480 cells; [5]): > 1e-05 M
IC50 (SW480 cells; [4]): > 1e-05 M

SFYDCLLDLSIGGPSSDWRRRCITA [Peptide F441]
Activity (MCF7 cells): Antagonist

GVRAMSFYDALVSVLGLGPSG [Peptide F157]
IC50 in SW480 (M) in presence of IGF-1/alone: in presence of IGF-1 (SW480 cells; [3]): No effect

EGLLFCKQLFTLAGLQPEAGCVSSSRE [Peptide F165]
IC50 in SW480 (M) in presence of IGF-1/alone: in presence of IGF-1 (SW480 cells; [3]): No effect

QFYGCLLDLSLGVPSPGWRRRCITA [Peptide F393]
IC50 (SW480 cells; read-out: IC50, inhibition of IGF-1 (10 nM)-induced proliferation of SW480 cells, experiment 13262-027): 1e-06 M
IC50 (SW480 cells; read-out: IC50, inhibition of IGF-1 (10 nM)-induced proliferation of SW480 cells, experiment 13262-029): 1e-06 M

EGRVDDAFYENFERQLGE [Peptide F213]
IC50 in SW480 (M) in presence of IGF-1/alone: in presence of IGF-1 (SW480 cells; [3]): No effect
IC50 (SW480 cells; [4]): 2e-06 M

EFSGFCMGLERLSOVSLGYCGAGOGGE [Peptide F169]
IC50 (SW480 cells; [4]): 2e-06 M

EVTSAGQWEGYEWFLGALHAE [Peptide F210]
IC50 in SW480 (M) in presence of IGF-1/alone: in presence of IGF-1 (SW480 cells; [3]): No effect

CC[C@H](C)[C@H](NC(=O)[C@H](CS)NC(=O)[C@H](CCCNC(=N)N)NC(=O)[C@H](CCCNC(=N)N)NC(=O)[C@H](CCCNC(=N)N)NC(=O)[C@H](Cc1c[nH]c2ccccc12)NC(=O)CNC(=O)[C@H](Cc1ccccc1)NC(=O)[C@H](CO)NC(=O)[C@@H]1CCCN1C(=O)[C@@H](NC(=O)CNC(=O)[C@H](CC(C)C)NC(=O)[C@H](CO)NC(=O)[C@H](CC(C)C)NC(=O)[C@H](CC(=O)O)NC(=O)[C@H](CC(C)C)NC(=O)[C@H](CC(C)C)NC(=O)[C@H](CS)NC(=O)CNC(=O)[C@H](Cc1ccc(O)cc1)NC(=O)[C@H](Cc1ccccc1)NC(=O)[C@@H]1CCC(=O)N1)C(C)C)C(=O)N[C@H](C(=O)N[C@@H](C)C(=O)O)[C@@H](C)O [Peptide F138P]
IC50 (SW480 cells): 5e-07 M
inhibition of basal growth of SW480, doses (SW480 cells; without IGF-1): > 100 nM

SAAQLFFQESFYDWFLRQVAESSQPN [Peptide F162]
IC50 in SW480 (M) in presence of IGF-1/alone: in presence of IGF-1 (SW480 cells; [3]): No effect

SFYSCLESLVTGPAEKSRGQWEGCRK [Peptide F292]
IC50 (SW480 cells; [5]): 1e-06 M
IC50 (SW480 cells; [4]): 1e-07 M

DMGDVECEDPFYDWFACQVRDTEFDE [Peptide F115]
IC50 in SW480 (M) in presence of IGF-1/alone: in presence of IGF-1 (SW480 cells; [3]): No effect

SFYSCLESLVKRPTERSRGQWVGCR [Peptide F320]
IC50 in SW480 (M) in presence of IGF-1/alone: in presence of IGF-1 (SW480 cells; [3]): No effect
IC50 (MAPK42): 1000 nM
IC50 (IRS-1): > 2000 nM
IC50 (IGF-IR): 2000 nM and > 1000 nM
IC50 (MAPK44): 1000 nM

NFYGCLLDLSLGVPSFGWRRRCITA [Peptide F408]
Activity (MCF7 cells): Antagonist

SFYSCLGSLLTGAPQPIRGAWDRCR [Peptide F144]
IC50 in SW480 (M) in presence of IGF-1/alone: in presence of IGF-1 (SW480 cells; [3]): No effect

EVDRDCQARPCGDAANFYDWFGQQGTE [Peptide F269]
IC50 (SW480 cells; [5]): > 1e-05 M
IC50 (SW480 cells; [4]): 5e-07 M

EIQRDCQGRPCGDAANFYDWFVQQDSE [Peptide F268]
IC50 in SW480 (M) in presence of IGF-1/alone: in presence of IGF-1 (SW480 cells; [3]): No effect

SFYSCLESLVNGGAERSEGOWEGCR [Peptide F113]
IC50 (SW480 cells; [1]): > 1e-05 M
IC50 (SW480 cells; [2]): > 1e-05 M

ELSFACLLSQLSGVVLPDCLLGEDE [Peptide F201]
IC50 in SW480 (M) in presence of IGF-1/alone: in presence of IGF-1 (SW480 cells; [3]): No effect

SACQFDCHENFYDWFAROVSGOAAYG [Peptide F161]
IC50 in SW480 (M) in presence of IGF-1/alone: in presence of IGF-1 (SW480 cells; [3]): No effect

ENRSGELWEGYGWFNMQVRGE [Peptide F212]
IC50 in SW480 (M) in presence of IGF-1/alone: in presence of IGF-1 (SW480 cells; [3]): No effect

Ac-ESDVWAQPQRRNDWPGYHWLSR [Peptide F288]
IC50 in SW480 (M) in presence of IGF-1/alone: in presence of IGF-1 (SW480 cells; [3]): No effect

GSLDESFYDWFERQLGKK-Lig [Peptide F118]
IC50 in SW480 (M) in presence of IGF-1/alone: in presence of IGF-1 (SW480 cells; [3]): No effect
